From patent US20240246977A1, “DEGRADATION OF BRUTON'S TYROSINE KINASE (BTK) BY CONJUGATION OF BTK INHIBITORS WITH E3 LIGASE LIGAND AND METHOD OF USE” (BeiGene Switzerland GmbH, priority 2021, published 2024)

Columns and labels:
HEK-293 cells = test: HEK-293 cytotoxicity detection (CellTiter-Glo); format: cell-based; settings: Homo sapiens, 72 h, 72 h incubation, CellTiter-Glo luminescence, read-out: HEK293
Protocol: HEK-293 cells were treated with compounds diluted in 0.2% DMSO, dilution was done according to the following protocol: (1) making 500× stock solution in DMSO from 5 mM by 4-fold dilution, total 8 doses were included; (2) making 2× solution in cell culture medium by transferring 0.5 ul 500× stock solution into 125 ul medium; (3) adding 50 ul of 2× solution to cells for incubation of 72 h.
25 μl of the CellTiter-Glo®Reagent [(Promega)—Cat No. G7572] was added to each well in the 96-well plate. The contents were mixed for 2 minutes on an orbital shaker to induce cell lysis. The plate was then allowed to incubate at room temperature for 10 minutes to stabilize luminescent signal. Luminescence was recorded on BMG PheraStar with luminescence protocol.
The inhibition percentage of the compound was calculated by the following equation: Inhibition percentage of Compound=100−100×(Signal-low control)/(High control-low control), wherein signal=each test compound group
High control=Cell group with added DMSO and without compound, indicating cells proliferation with no inhibition;
Imax is the maximum percentage of inhibition.
The IC50 value of a compound can be obtained by fitting the following equation
(§1) Wherein, X and Y are known values, and IC50, Hillslope, Top and Bottom are the parameters obtained by fitting with software. Y is the inhibition percentage (calculated from the equation), X is the concentration of the compound; IC50 is the concentration of the compound when the 50% inhibition is reached. The smaller the IC50 value is, the stronger the inhibitory ability of the compound is. Vice versa, the higher the IC50 value is, the weaker the ability the inhibitory ability of the compound is; Hillslope represents the slope of the fitted curve, generally around 1*; Bottom represents the minimum value of the curve obtained by data fitting, which is generally 0%±20%; Top represents the maximum value of the curve obtained by data fitting, which is generally 100%±20%. The experimental data were fitted by calculating and analyzing with Dotmatics data analysis software.

BTK = BTK (Homo sapiens, UniProt Q06187); test: BTK cell degradation in TMD-8 cells, HTRF assay; format: cell-based; design: endogenous in cells; host or cells: TMD-8 cells; settings: 6 h treatment, IC50 (DC50) of BTK degradation
Sequence of BTK (Q06187 whole entry): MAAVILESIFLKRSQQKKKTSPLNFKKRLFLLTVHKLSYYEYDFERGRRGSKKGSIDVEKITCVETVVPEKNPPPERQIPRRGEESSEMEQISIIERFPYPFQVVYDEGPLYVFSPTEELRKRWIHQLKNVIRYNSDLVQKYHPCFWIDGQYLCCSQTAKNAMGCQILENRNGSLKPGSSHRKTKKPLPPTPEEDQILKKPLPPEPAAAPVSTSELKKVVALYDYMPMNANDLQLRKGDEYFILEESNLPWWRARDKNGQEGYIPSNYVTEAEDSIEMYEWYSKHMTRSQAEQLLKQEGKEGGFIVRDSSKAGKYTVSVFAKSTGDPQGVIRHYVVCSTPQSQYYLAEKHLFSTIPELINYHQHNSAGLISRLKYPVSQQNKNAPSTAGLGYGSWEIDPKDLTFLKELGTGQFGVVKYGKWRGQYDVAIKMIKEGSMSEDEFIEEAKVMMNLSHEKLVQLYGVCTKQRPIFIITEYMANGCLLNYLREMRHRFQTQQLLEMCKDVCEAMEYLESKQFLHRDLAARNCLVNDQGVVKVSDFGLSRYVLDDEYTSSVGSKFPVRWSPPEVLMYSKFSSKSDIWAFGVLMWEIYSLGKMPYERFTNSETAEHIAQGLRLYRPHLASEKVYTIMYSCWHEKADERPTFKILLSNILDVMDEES
Protocol: TMD-8 cells were treated with compounds diluted in 0.2% DMSO, dilution was done according to the following protocol: (1) making 500× stock solution in DMSO from 1 mM by 6-fold dilution, total 8 doses were included; (2) making 2× solution in cell culture medium by transferring 0.5 μl 500× stock solution into 125 μl medium; (3) adding 15 μl of 2× solution to cells for incubation of 6 h.
After 6 h treatment, 10 μl 14×lysis buffer was added to each well; the plate was sealed and incubated for 30 min at room temperature on a plate shaker; Once the cells was lysed, 16 μL of cell lysate were transferred to a PE 384-well HTRF detection plate; 4 μL of pre-mixed HTRF antibodies were added to each well; the plate was covered with a plate sealer, and then spinned at 1000 rpm for 1 min, then incubated overnight at room temperature; the results were read on BMG PheraStar with HTRF protocol (337 nm-665 nm-620 nm).
The inhibition (degradation) percentage of the compound was calculated by the following equation: Inhibition percentage of Compound=100−100×(Signal-low control)/(High control-low control), wherein signal=each test compound group
High control=Cell group with added DMSO and without compound, indicating microplate readings without BTK degradation;
Dmax is the maximum percentage of inhibition (degradation).
The IC50 (DC50) value of a compound can be obtained by fitting the following equation
Y=Bottom+(TOP−Bottom)/(1+((IC50/X)^hillslope))
as §1, with “wherein,” for “Wherein,”

Row | DC50 (BTK) | Compound | IC50 (HEK-293 cells)
1 | 0.928 nM | NC(=O)c1c(-c2ccc(C(=O)Nc3cc(C(F)(F)F)ccn3)c(Cl)c2)nn2c1Nc1ccc(N3CCN(CC4CCN(c5ccc(N6CCC(=O)NC6=O)cc5)CC4)CC3)cc1CC2 [Example B26, 2-(3-chloro-4-((4-(trifluoromethyl)pyridin-2-yl)carbamoyl)phenyl)-7-(4-((1-(4-(2,4-dioxotetrahydropyrimidin-1(2H)-yl)phenyl)piperidin-4-yl)methyl)piperazin-1-yl)-9,10-dihydro-4H-benzo[d]pyrazolo[1,5-a][1,3]diazepine-3-carboxamide] | > 10000 nM
2 | 0.704 nM | NC(=O)c1c(-c2ccc(C(=O)Nc3ccccn3)cc2)nn2c1Nc1ccc(N3CCN(CC4CCN(c5ccc(N6CCC(=O)NC6=O)cc5)CC4)CC3)cc1CC2 [Example B4, 7-(4-((1-(4-(2,4-dioxotetrahydropyrimidin-1(2H)-yl)phenyl)piperidin-4-yl)methyl)piperazin-1-yl)-2-(4-(pyridin-2-ylcarbamoyl)phenyl)-9,10-dihydro-4H-benzo[d]pyrazolo[1,5-a][1,3]diazepine-3-carboxamide] | > 10000 nM
3 | 8.66 nM | Cc1cccc(NC(=O)c2ccc(-c3nn4c(c3C(N)=O)Nc3ccc(N5CCN(CC6CCN(c7cccc(CN8CCC(=O)NC8=O)c7)CC6)CC5)cc3CC4)c(F)c2C)n1 [Example B70, 7-(4-((1-(3-((2,4-dioxotetrahydropyrimidin-1(2H)-yl)methyl)phenyl)piperidin-4-yl)methyl)piperazin-1-yl)-2-(2-fluoro-3-methyl-4-((6-methylpyridin-2-yl)carbamoyl)phenyl)-9,10-dihydro-4H-benzo[d]pyrazolo[1,5-a][1,3]diazepine-3-carboxamide] | 
4 | 1.7 nM | Cc1c(C(=O)Nc2cscn2)ccc(-c2nn3c(c2C(N)=O)Nc2ccc(N4CCN(CCc5cc(F)c([C@H]6CCC(=O)NC6=O)c(F)c5)CC4)cc2CC3)c1F [Example B95, (R)-7-(4-(4-(2,6-dioxopiperidin-3-yl)-3,5-difluorophenethyl)piperazin-1-yl)-2-(2-fluoro-3-methyl-4-(thiazol-4-ylcarbamoyl)phenyl)-9,10-dihydro-4H-benzo[d]pyrazolo[1,5-a] [1,3]diazepine-3-carboxamide] | 
5 | 8.05 nM | Cc1cccc(NC(=O)c2ccc(-c3nn4c(c3C(N)=O)Nc3ccc(N5CCN(CC6CCN(c7ccc(CN8CCC(=O)NC8=O)cc7)CC6)CC5)cc3CC4)c(F)c2C)n1 [Example B69, 7-(4-((1-(4-((2,4-dioxotetrahydropyrimidin-1(2H)-yl)methyl)phenyl)piperidin-4-yl)methyl)piperazin-1-yl)-2-(2-fluoro-3-methyl-4-((6-methylpyridin-2-yl)carbamoyl)phenyl)-9,10-dihydro-4H-benzo[d]pyrazolo[1,5-a][1,3]diazepine-3-carboxamide] | 

Second part, the compound before the results:

Row | Compound | DC50 (BTK) | IC50 (HEK-293 cells)
6 | Cc1cccc(NC(=O)c2ccc(-c3nn4c(c3C(N)=O)Nc3ccc(N5CCN(CC6CCN(c7cc8c(cc7F)C(=O)N(C7CCC(=O)NC7=O)C8=O)CC6)CC5)cc3CC4)c(F)c2C)n1 (stereo not shown) [Example B55, 7-(4-((1-(2-(2,6-dioxopiperidin-3-yl)-6-fluoro-1,3-dioxoisoindolin-5-yl)piperidin-4-yl)methyl)piperazin-1-yl)-2-(2-fluoro-3-methyl-4-((6-methylpyridin-2-yl)carbamoyl)phenyl)-9,10-dihydro-4H-benzo[d]pyrazolo[1,5-a][1,3]diazepine-3-carboxamide] | 2.42 nM | > 10000 nM
7 | CC(C)(C)c1ccc(Oc2ccc(-c3nn4c(c3C(N)=O)Nc3ccc(C5CCN(CCC6CCN(c7ccc(N8CCC(=O)NC8=O)cc7)CC6)CC5)cc3CC4)cc2)cc1 [Example A29, 2-(4-(4-(tert-butyl)phenoxy)phenyl)-7-(1-(2-(1-(4-(2,4-dioxotetrahydropyrimidin-1(2H)-yl)phenyl)piperidin-4-yl)ethyl)piperidin-4-yl)-9,10-dihydro-4H-benzo[d]pyrazolo[1,5-a][1,3]diazepine-3-carboxamide] | 16.3 nM | 
8 | NC(=O)c1c(-c2ccc(Oc3ccccc3)cc2)nn2c1Nc1cc(N3CCN(CC4CCN(c5ccc6c(c5)C(=O)N(C5CCC(=O)NC5=O)C6=O)CC4)CC3)ccc1CC2 (stereo not shown) [Example A15, 6-(4-((1-(2-(2,6-dioxopiperidin-3-yl)-1,3-dioxoisoindolin-5-yl)piperidin-4-yl)methyl)piperazin-1-yl)-2-(4-phenoxyphenyl)-9,10-dihydro-4H-benzo[d]pyrazolo[1,5-a][1,3]diazepine-3-carboxamide] | 27.9 nM | 
9 | NC(=O)c1c(-c2ccc(Oc3ccccc3)cc2)nn2c1Nc1ccc(N3CCN(CCC4CCN(c5ccc(N6CCC(=O)NC6=O)cc5)CC4)CC3)cc1CC2 [Example A22, 7-(4-(2-(1-(4-(2,4-dioxotetrahydropyrimidin-1(2H)-yl)phenyl)piperidin-4-yl)ethyl)piperazin-1-yl)-2-(4-phenoxyphenyl)-9,10-dihydro-4H-benzo[d]pyrazolo[1,5-a][1,3]diazepine-3-carboxamide] | 1.31 nM | 
10 | Cc1c(C(=O)Nc2cn(C)cn2)ccc(-c2nn3c(c2C(N)=O)Nc2ccc(N4CCN(CCc5cc(F)c([C@H]6CCC(=O)NC6=O)c(F)c5)CC4)cc2CC3)c1F [Example B89, (R)-7-(4-(4-(2,6-dioxopiperidin-3-yl)-3,5-difluorophenethyl)piperazin-1-yl)-2-(2-fluoro-3-methyl-4-((1-methyl-1H-imidazol-4-yl)carbamoyl)phenyl)-9,10-dihydro-4H-benzo[d]pyrazolo[1,5-a][1,3]diazepine-3-carboxamide] |  | > 10000 nM
11 | NC(=O)c1c(-c2ccc(Oc3ccccc3)cc2)nn2c1Nc1cc(C(=O)N3CCN(CC4CCN(c5ccc6c(c5)C(=O)N(C5CCC(=O)NC5=O)C6=O)CC4)CC3)ccc1CC2 (stereo not shown) [Example A19, 6-(4-((1-(2-(2,6-dioxopiperidin-3-yl)-1,3-dioxoisoindolin-5-yl)piperidin-4-yl)methyl)piperazine-1-carbonyl)-2-(4-phenoxyphenyl)-9,10-dihydro-4H-benzo[d]pyrazolo[1,5-a][1,3]diazepine-3-carboxamide] | 17.9 nM | 
12 | NC(=O)c1c(-c2ccc(Oc3ccccc3)cc2)nn2c1Nc1ccc(NCC3CCN(c4cc5c(cc4F)C(=O)N(C4CCC(=O)NC4=O)C5=O)CC3)cc1CC2 (stereo not shown) [Example A16, 7-(((1-(2-(2,6-dioxopiperidin-3-yl)-6-fluoro-1,3-dioxoisoindolin-5-yl)piperidin-4-yl)methyl)amino)-2-(4-phenoxyphenyl)-9,10-dihydro-4H-benzo[d]pyrazolo[1,5-a][1,3]diazepine-3-carboxamide] | 9.71 nM | 
13 | NC(=O)c1c(-c2ccc(Oc3ccccc3)cc2)nn2c1Nc1cc(C(=O)NC3CCN(CC4CCN(c5cc6c(cc5F)C(=O)N(C5CCC(=O)NC5=O)C6=O)CC4)CC3)ccc1CC2 (stereo not shown) [Example A17, N^6-(1-((1-(2-(2,6-dioxopiperidin-3-yl)-6-fluoro-1,3-dioxoisoindolin-5-yl)piperidin-4-yl)methyl)piperidin-4-yl)-2-(4-phenoxyphenyl)-9,10-dihydro-4H-benzo[d]pyrazolo[1,5-a][1,3]diazepine-3,6-dicarboxamide] | 14.4 nM | 
